Measurements: patent US20090123907A1 (priority 2004, published 2009)

Columns and labels:
plasma proteins [1] = test: Protein resistance to vortexing; details: for Alk. Phos / LDH / SGOT / SGPT / fIX / fV / fVIII / fibrinogen: plasma, Na citrate 0.4%, lysine citrate 2.0%; for Alkaline phosphatase, % of its initial value / LDH, % of initial value / SGOT, % of initial value / SGPT, % of initial value / factor IX, % of initial value / factor V, % of initial value / factor VIII, % of initial value / fibrinogen, % of initial value: sodium citrate 0.4%, lysine citrate 2%
Protocol: As the basic anticoagulant experiments were carried out, additional advantages to the new anticoagulation system became apparent. The inventor has long believed that the effects of citrate on proteins, and in particular plasma proteins, goes beyond mere chelation of calcium. As mentioned above, citrate complexes with or otherwise potentiates the precipitation of plasma proteins. […] Soluble protein can be denatured by vigorous mixing and the resulting exposure to the air-water interfaces present in foam. […]. Two ten ml tubes of each plasma were prepared and held at room temperature for thirty minutes. A “pretreatment” sample (Pre) was removed from each tube and set aside. Then the tubes were subjected to vigorous mixing using a vortex (rotary) mixer for 30 min.
[…]. […] […].

plasma proteins [2] = test: Protein resistance to glass beads; details: Na citrate 0.4%, lysine citrate 2.0%
Text: The above experiment was repeated using glass beads as a denaturing agent. Generally, contact of blood plasma with glass surfaces results in activation or denaturation. […].

platelets = test: Platelet rich plasma supplemented with 2% lysine citrate, 25 days storage; format: cell-based; details: room temperature
Text: […]. In this experiment plasma is centrifuged to create platelet rich plasma (PRP). […]. For the first fifteen days the platelet parameters remain essentially unchanged. During the next five day period (days 16-20) the platelet count drifts down slightly and LDH level increases slightly. During the last five days (days 21-25), the platelet count drops off rather precipitously and the LDH level rises rather steeply. Yet clotting time remains relatively constant.

[3] = after vortexing, 2% sodium citrate (similar experiment, data not shown)
[4] = Post 30 min rocking with glass beads

SMILES: O=C([O-])CC(O)(CC(=O)[O-])C(=O)[O-].[Na+].[Na+].[Na+] [Na Citrate, sodium citrate, reference compound]
- Alk. Phos (plasma proteins [1]; Post 30 min vortexing): 15 IU/.L
- LDH (plasma proteins [1]; Post 30 min vortexing): 33 IU/L
- SGOT (plasma proteins [1]; Post 30 min vortexing): 1 IU/L
- SGPT (plasma proteins [1]; Post 30 min vortexing): 1 IU/L
- fIX (plasma proteins [1]; Post 30 min vortexing): 44%
- fV (plasma proteins [1]; Post 30 min vortexing): 21%
- fVIII (plasma proteins [1]; Post 30 min vortexing): 32%
- fibrinogen (plasma proteins [1]; Post 30 min vortexing): 106 mg/dL
- Alk. Phos (plasma proteins [1]; Pre vortexing): 27 IU/.L
- LDH (plasma proteins [1]; Pre vortexing): 100 IU/L
- SGOT (plasma proteins [1]; Pre vortexing): 15 IU/L
- SGPT (plasma proteins [1]; Pre vortexing): 29 IU/L
- fIX (plasma proteins [1]; Pre vortexing): 103%
- fV (plasma proteins [1]; Pre vortexing): 98%
- fVIII (plasma proteins [1]; Pre vortexing): 102%
- fibrinogen (plasma proteins [1]; Pre vortexing): 258 mg/dL
- LDH, % of the initial value (plasma proteins [1]; [3]): 48%
- SGOT, % of the initial value (plasma proteins [1]; [3]): 33%
- SGPT, % of the initial value (plasma proteins [1]; [3]): 32%
- alkaline phosphatase, % of the initial value (plasma proteins [1]; [3]): 80%
- factor IX, % of the initial value (plasma proteins [1]; [3]): 62%
- factor V, % of the initial value (plasma proteins [1]; [3]): 52%
- factor Viii, % of the initial value (plasma proteins [1]; [3]): 57%
- fibrinogen, % of the initial value (plasma proteins [1]; [3]): 69%
- Alkaline phosphatase, % of its initial value (plasma proteins [1]; after vortexing): 55%
- LDH, % of initial value (plasma proteins [1]; after vortexing): 33%
- SGOT, % of initial value (plasma proteins [1]; after vortexing): 6.6%
- SGPT, % of initial value (plasma proteins [1]; after vortexing): 3.4%
- factor IX, % of initial value (plasma proteins [1]; after vortexing): 43%
- factor V, % of initial value (plasma proteins [1]; after vortexing): 21%
- factor VIII, % of initial value (plasma proteins [1]; after vortexing): 31%
- fibrinogen, % of initial value (plasma proteins [1]; after vortexing): 4%
- Alk. Phos (plasma proteins [2]; [4]): 16 IU/.L
- LDH (plasma proteins [2]; [4]): 24 IU/L
- SGOT (plasma proteins [2]; [4]): 1 IU/L
- SGPT (plasma proteins [2]; [4]): 1 IU/L
- fIX (plasma proteins [2]; [4]): 14%
- fV (plasma proteins [2]; [4]): 15%
- fVIII (plasma proteins [2]; [4]): 29%
- fibrinogen (plasma proteins [2]; [4]): 88 mg/dL
- Alk. Phos (plasma proteins [2]; Pre glass beads): 27 IU/.L
- LDH (plasma proteins [2]; Pre glass beads): 100 IU/L
- SGOT (plasma proteins [2]; Pre glass beads): 15 IU/L
- SGPT (plasma proteins [2]; Pre glass beads): 29 IU/L
- fIX (plasma proteins [2]; Pre glass beads): 103%
- fV (plasma proteins [2]; Pre glass beads): 98%
- fVIII (plasma proteins [2]; Pre glass beads): 102%
- fibrinogen (plasma proteins [2]; Pre glass beads): 258 mg/dL

SMILES: NCCCC[C@H](N)C(=O)O.O=C(O)CC(O)(CC(=O)O)C(=O)O [Lysine Citrate, lysine citrate]
- Alk. Phos (plasma proteins [1]; Post 30 min vortexing): 22 IU/.L
- LDH (plasma proteins [1]; Post 30 min vortexing): 80 IU/L
- SGOT (plasma proteins [1]; Post 30 min vortexing): 11 IU/L
- SGPT (plasma proteins [1]; Post 30 min vortexing): 24 IU/L
- fIX (plasma proteins [1]; Post 30 min vortexing): 76%
- fV (plasma proteins [1]; Post 30 min vortexing): 55%
- fVIII (plasma proteins [1]; Post 30 min vortexing): 57%
- fibrinogen (plasma proteins [1]; Post 30 min vortexing): 198 mg/dL
- Alk. Phos (plasma proteins [1]; Pre vortexing): 25 IU/.L
- LDH (plasma proteins [1]; Pre vortexing): 99 IU/L
- SGOT (plasma proteins [1]; Pre vortexing): 12 IU/L
- SGPT (plasma proteins [1]; Pre vortexing): 26 IU/L
- fIX (plasma proteins [1]; Pre vortexing): 98%
- fV (plasma proteins [1]; Pre vortexing): 95%
- fVIII (plasma proteins [1]; Pre vortexing): 97%
- fibrinogen (plasma proteins [1]; Pre vortexing): 247 mg/dL
- Alkaline phosphatase, % of its initial value (plasma proteins [1]; after vortexing): 88%
- LDH, % of initial value (plasma proteins [1]; after vortexing): 80%
- SGOT, % of initial value (plasma proteins [1]; after vortexing): 91.6%
- SGPT, % of initial value (plasma proteins [1]; after vortexing): 92%
- factor IX, % of initial value (plasma proteins [1]; after vortexing): 77.6%
- factor V, % of initial value (plasma proteins [1]; after vortexing): 58%
- factor VIII, % of initial value (plasma proteins [1]; after vortexing): 59%
- fibrinogen, % of initial value (plasma proteins [1]; after vortexing): 80%
- Alk. Phos (plasma proteins [2]; [4]): 24 IU/.L
- LDH (plasma proteins [2]; [4]): 96 IU/L
- SGOT (plasma proteins [2]; [4]): 12 IU/L
- SGPT (plasma proteins [2]; [4]): 24 IU/L
- fIX (plasma proteins [2]; [4]): 84%
- fV (plasma proteins [2]; [4]): 67%
- fVIII (plasma proteins [2]; [4]): 62%
- fibrinogen (plasma proteins [2]; [4]): 202 mg/dL
- Alk. Phos (plasma proteins [2]; Pre glass beads): 25 IU/.L
- LDH (plasma proteins [2]; Pre glass beads): 99 IU/L
- SGOT (plasma proteins [2]; Pre glass beads): 12 IU/L
- SGPT (plasma proteins [2]; Pre glass beads): 26 IU/L
- fIX (plasma proteins [2]; Pre glass beads): 98%
- fV (plasma proteins [2]; Pre glass beads): 95%
- fVIII (plasma proteins [2]; Pre glass beads): 97%
- fibrinogen (plasma proteins [2]; Pre glass beads): 247 mg/dL
- Clotting time (platelets; Day 1, PRP): 30 s
- Count (platelets) (platelets; Day 1, PRP): 3.80 × 10^5 per μl
- LDH (platelets; Day 1, PRP): 106 IU/L
- Clotting time (platelets; Day 2, PRP): 30 s
- Count (platelets) (platelets; Day 2, PRP): 3.75 × 10^5 per μl
- LDH (platelets; Day 2, PRP): 108 IU/L
- Clotting time (platelets; Day 3, PRP): 30 s
- Count (platelets) (platelets; Day 3, PRP): 3.76 × 10^5 per μl
- LDH (platelets; Day 3, PRP): 109 IU/L
- Clotting time (platelets; Day 4, PRP): 30 s
- Count (platelets) (platelets; Day 4, PRP): 3.80 × 10^5 per μl
- LDH (platelets; Day 4, PRP): 108 IU/L
- Clotting time (platelets; Day 5, PRP): 31 s
- Count (platelets) (platelets; Day 5, PRP): 3.76 × 10^5 per μl
- LDH (platelets; Day 5, PRP): 108 IU/L
- Clotting time (platelets; Day 6, PRP): 31 s
- Count (platelets) (platelets; Day 6, PRP): 3.75 × 10^5 per μl
- LDH (platelets; Day 6, PRP): 106 IU/L
- Clotting time (platelets; Day 7, PRP): 32 s
- Count (platelets) (platelets; Day 7, PRP): 3.76 × 10^5 per μl
- LDH (platelets; Day 7, PRP): 109 IU/L
- Clotting time (platelets; Day 8, PRP): 30 s
- Count (platelets) (platelets; Day 8, PRP): 3.76 × 10^5 per μl
- LDH (platelets; Day 8, PRP): 109 IU/L
- Clotting time (platelets; Day 9, PRP): 31 s
- Count (platelets) (platelets; Day 9, PRP): 3.80 × 10^5 per μl
- LDH (platelets; Day 9, PRP): 108 IU/L
- Clotting time (platelets; Day 10, PRP): 30 s
- Count (platelets) (platelets; Day 10, PRP): 3.77 × 10^5 per μl
- LDH (platelets; Day 10, PRP): 109 IU/L
- Clotting time (platelets; Day 11, PRP): 29 s
- Count (platelets) (platelets; Day 11, PRP): 3.77 × 10^5 per μl
- LDH (platelets; Day 11, PRP): 109 IU/L
- Clotting time (platelets; Day 12, PRP): 30 s
- Count (platelets) (platelets; Day 12, PRP): 3.75 × 10^5 per μl
- LDH (platelets; Day 12, PRP): 108 IU/L
- Clotting time (platelets; Day 13, PRP): 30 s
- Count (platelets) (platelets; Day 13, PRP): 3.81 × 10^5 per μl
- LDH (platelets; Day 13, PRP): 110 IU/L
- Clotting time (platelets; Day 14, PRP): 31 s
- Count (platelets) (platelets; Day 14, PRP): 3.80 × 10^5 per μl
- LDH (platelets; Day 14, PRP): 110 IU/L
- Clotting time (platelets; Day 15, PRP): 30 s
- Count (platelets) (platelets; Day 15, PRP): 3.76 × 10^5 per μl
- LDH (platelets; Day 15, PRP): 109 IU/L
- Clotting time (platelets; Day 16, PRP): 29 s
- Count (platelets) (platelets; Day 16, PRP): 3.75 × 10^5 per μl
- LDH (platelets; Day 16, PRP): 109 IU/L
- Clotting time (platelets; Day 17, PRP): 30 s
- Count (platelets) (platelets; Day 17, PRP): 3.74 × 10^5 per μl
- LDH (platelets; Day 17, PRP): 108 IU/L
- Clotting time (platelets; Day 18, PRP): 30 s
- Count (platelets) (platelets; Day 18, PRP): 3.76 × 10^5 per μl
- LDH (platelets; Day 18, PRP): 110 IU/L
- Clotting time (platelets; Day 19, PRP): 31 s
- Count (platelets) (platelets; Day 19, PRP): 3.74 × 10^5 per μl
- LDH (platelets; Day 19, PRP): 111 IU/L
- Clotting time (platelets; Day 20, PRP): 30 s
- Count (platelets) (platelets; Day 20, PRP): 3.74 × 10^5 per μl
- LDH (platelets; Day 20, PRP): 111 IU/L
- Clotting time (platelets; Day 21, PRP): 30 s
- Count (platelets) (platelets; Day 21, PRP): 3.56 × 10^5 per μl
- LDH (platelets; Day 21, PRP): 103 IU/L
- Clotting time (platelets; Day 22, PRP): 31 s
- Count (platelets) (platelets; Day 22, PRP): 3.42 × 10^5 per μl
- LDH (platelets; Day 22, PRP): 105 IU/L
- Clotting time (platelets; Day 23, PRP): 26 s
- Count (platelets) (platelets; Day 23, PRP): 3.28 × 10^5 per μl
- LDH (platelets; Day 23, PRP): 122 IU/L
- Clotting time (platelets; Day 24, PRP): 29 s
- Count (platelets) (platelets; Day 24, PRP): 2.91 × 10^5 per μl
- LDH (platelets; Day 24, PRP): 159 IU/L
- Clotting time (platelets; Day 25, PRP): 26 s
- Count (platelets) (platelets; Day 25, PRP): 2.24 × 10^5 per μl
- LDH (platelets; Day 25, PRP): 279 IU/L
